# Assay results from ChEMBL document CHEMBL6177984, “Pyrazolo[1,5-a]pyrimidine-Based Type-I Photosensitizer as an Efficient Pyroptosis Inducer for Tumor Ablation” (J Med Chem, 2025).
# Activity calls are given as the source filed them. No cut-off for these calls is given here.
# Key:
# MDA-MB-231 [1] = assay: Induction of pyroptosis mediated immunogenic cell death in human MDA-MB-231 cells assessed as increase in ATP release at 0.5 uM preincubated with compound for 1 hr followed by light irradiated with 400 to 700 nm 100 mW/cm^2 for 10 mins and measured after 6 to 12 hrs by microplate luminometer analysis; format: functional, cell-based; details: time 430-790 min
# MDA-MB-231 [2] = assay: Photocytotoxicity in human MDA-MB-231 cells assessed as cell viability by measuring green fluorescence intensity at 0.5 uM preincubated with compound for 1 hr followed by light irradiated with 400 to 700 nm 100 mW/cm^2 for 10 mins and measured after 24 hrs by Calcein-AM staining based confocal microscopic analysis; format: functional; details: time 1510.0 min
# [3] = Toxicity in BALB/c mouse implanted with mouse 4T1 cells assessed as liver damage at 1 mg/kg, iv using self assembled nanoparticle as source of compound measured up to 16 days by H and E staining based analysis; format: organism-based; details: in vivo, 384 h, time < 16 day
# MDA-MB-231 [4] = assay: Induction of ROS production in human MDA-MB-231 cells assessed as increase in red fluorescence intensity at 0.3 uM preincubated with compound for 1 hr followed by light irradiation with 400 to 700 nm 100 mW/cm2 for 10 mins by […] fluorescent probe based flow cytometry; format: functional, cell-based; details: time 70.0 min
# 4T1 [5] = assay: Photocytotoxicity in mouse 4T1 cells assessed as cell viability up to 10 uM preincubated with compound for 1 hr followed by light irradiated with 400 to 700 nm 100 mW/cm^2 for 10 mins and measured after 24 hrs by CCK-8 assay; format: functional, cell-based; details: time 1510.0 min
# MDA-MB-231 [6] = assay: Upregulation of cleaved caspase expression in human MDA-MB-231 cells at 0.5 to 1 uM preincubated with compound for 1 hr followed by light irradiated with 400 to 700 nm 100 mW/cm^2 for 10 mins and measured after 3 hrs by Western blot analysis; format: functional, cell-based; details: dose 0.5-1 µM, time 250.0 min
# MDA-MB-231 [7] = assay: Induction of ROS production in human MDA-MB-231 cells assessed as increase in […] fluorescence intensity at 0.3 uM preincubated with compound for 1 hr followed by light irradiation with 400 to 700 nm 100 mW/cm2 for 10 mins by DHE fluorescent probe based flow cytometry; format: functional, cell-based; details: time 70.0 min
# [8] = Toxicity in BALB/c mouse implanted with mouse 4T1 cells assessed as change in body weight at 1 mg/kg, iv using self assembled nanoparticle as source of compound measured up to 16 days; format: organism-based; details: in vivo, 384 h, time < 16 day
# MDA-MB-231 [9] = assay: Effect on caspase-3 expression in human MDA-MB-231 cells at 0.5 to 1 uM incubated for 3 hrs by Western blot analysis; format: functional, cell-based; details: dose 0.5-1 µM
# MDA-MB-231 [10] = assay: Induction of pyroptosis in human MDA-MB-231 cells assessed as increase in IL-18 content at 0.5 uM preincubated with compound for 1 hr followed by light irradiated with 400 to 700 nm 100 mW/cm^2 for 10 mins and measured after 12 to 20 hrs; format: functional, cell-based; details: time 790-1270 min
# MDA-MB-231 [11] = assay: Upregulation of N-terminal GSDME expression in human MDA-MB-231 cells at 0.5 to 1 uM preincubated with compound for 1 hr followed by light irradiated with 400 to 700 nm 100 mW/cm^2 for 10 mins and measured after 6 hrs by Western blot analysis; format: functional, cell-based; details: dose 0.5-1 µM, time 430.0 min
# MDA-MB-231 [12] = assay: Induction of ROS production in human MDA-MB-231 cells assessed as increase in green fluorescence intensity at 0.3 uM preincubated with compound for 1 hr followed by light irradiation with 400 to 700 nm 100 mW/cm2 for 10 mins by HPF fluorescent probe based flow cytometry; format: functional, cell-based; details: time 70.0 min
# 4T1 [13] = assay: Antitumor activity against mouse 4T1 cells implanted in BALB/c mouse at 1 mg/kg, iv using self assembled nanoparticle as source of compound measured at 3 hrs; format: functional, organism-based
# 4T1 [14] = assay: Antitumor activity against mouse 4T1 cells implanted in BALB/c mouse assessed as increase CD4+ CD8+ cells in lymph at 1 mg/kg, iv using self assembled nanoparticle as source of compound preincubated with compound for 3 hrs followed by irradiation with 400 to 700 nm 100 mW/cm2 for 5 mins and measured after 14 days by flow cytometry analysis; format: functional, organism-based; details: time 20345.0 min
# [15] = Toxicity in BALB/c mouse implanted with mouse 4T1 cells assessed as lung damage at 1 mg/kg, iv using self assembled nanoparticle as source of compound measured up to 16 days by H and E staining based analysis; format: organism-based; details: in vivo, 384 h, time < 16 day
# [16] = Drug uptake in human MDA-MB-231 cells at 2 uM measured at 1 hr by flow cytometry analysis; format: ADME, cell-based; details: mda-mb-231, 1 h
# 4T1 [17] = assay: Antitumor activity against mouse 4T1 cells implanted in BALB/c mouse assessed as increase in caspase-3 level at 1 mg/kg, iv using self assembled nanoparticle as source of compound preincubated with compound for 3 hrs followed by irradiation with 400 to 700 nm 100 mW/cm2 for 5 mins and measured after 14 days; format: functional, organism-based; details: time 20345.0 min
# MDA-MB-231 [18] = assay: Photocytotoxicity in human MDA-MB-231 cells assessed as cell viability preincubated with compound for 1 hr followed by light irradiated with 400 to 700 nm 100 mW/cm^2 for 10 mins and measured after 24 hrs under hypoxic condition by CCK-8 assay; format: functional, cell-based; details: MDA-MB-231, light or radiation study
# MDA-MB-231 [19] = assay: Induction of pyroptosis mediated immunogenic cell death in human MDA-MB-231 cells assessed as increase in CRT exposure on cell membrane at 0.5 uM preincubated with compound for 1 hr followed by light irradiated with 400 to 700 nm 100 mW/cm^2 for 10 mins and measured after 18 hrs; format: functional, cell-based; details: time 1150.0 min
# MDA-MB-231 [20] = assay: Induction of apoptosis in human MDA-MB-231 cells assessed as cell death by flow cytometry analysis; format: functional, cell-based
# MDA-MB-231 [21] = assay: Induction of pyroptosis in human MDA-MB-231 cells assessed as increase in IL-1beta content at 0.5 uM preincubated with compound for 1 hr followed by light irradiated with 400 to 700 nm 100 mW/cm^2 for 10 mins and measured after 12 to 20 hrs; format: functional, cell-based; details: time 790-1270 min
# 4T1 [22] = assay: Antitumor activity against mouse 4T1 cells implanted in BALB/c mouse assessed as increase CD4+ CD8+ cells in spleen at 1 mg/kg, iv using self assembled nanoparticle as source of compound preincubated with compound for 3 hrs followed by irradiation with 400 to 700 nm 100 mW/cm2 for 5 mins and measured after 14 days by flow cytometry analysis; format: functional, organism-based; details: time 20345.0 min
# MDA-MB-231 [23] = assay: Effect on GSDME expression in human MDA-MB-231 cells at 0.5 to 1 uM incubated for 3 hrs by Western blot analysis; format: functional, cell-based; details: dose 0.5-1 µM
# MDA-MB-231 [24] = assay: Photocytotoxicity in human MDA-MB-231 cells assessed as cell death by measuring red fluorescence intensity at 0.5 uM preincubated with compound for 1 hr followed by light irradiated with 400 to 700 nm 100 mW/cm^2 for 10 mins and measured after 24 hrs by PI staining based confocal microscopic analysis; format: functional; details: time 1510.0 min
# MDA-MB-231 [25] = assay: Induction of pyroptosis mediated immunogenic cell death in human MDA-MB-231 cells assessed as HMGB1 release from nucleus at 0.5 uM preincubated with compound for 1 hr followed by light irradiated with 400 to 700 nm 100 mW/cm^2 for 10 mins and measured after 18 hrs; format: functional, cell-based; details: time 1150.0 min
# MDA-MB-231 [26] = assay: Induction of pyroptosis in human MDA-MB-231 cells assessed as swelling bubble formation at 0.5 uM preincubated with compound for 3 hrs followed by light irradiated with 400 to 700 nm 100 mW/cm^2 for 10 mins by confocal microscopic analysis; format: functional, cell-based; details: time 190.0 min
# [27] = Induction of ROS generation in BPS buffer assessed as increase in superoxide anion radical level by measuring increase in DHR123 fluorescence intensity at 10 uM irradiated with 400 to 700 nm 20 mW/cm2 light by DHR123 probe based fluorescence spectra analysis; format: functional; details: time <= 10.0 min
# MDA-MB-231 [28] = assay: Induction of pyroptosis in human MDA-MB-231 cells assessed as formation of bubble-like protrusion on plasma membrane at 0.5 uM preincubated with compound for 1 hr followed by light irradiated with 400 to 700 nm 100 mW/cm^2 for 10 mins and measured after 6 hrs by DiO staining based confocal microscopic analysis; format: functional, cell-based; details: time 430.0 min
# MDA-MB-231 [29] = assay: Induction of ROS production in human MDA-MB-231 cells assessed as increase in red fluorescence intensity at 0.3 uM preincubated with compound for 1 hr followed by light irradiation with 400 to 700 nm 100 mW/cm2 for 10 mins by DHE fluorescent probe based flow cytometry; format: functional, cell-based; details: time 70.0 min
# MDA-MB-231 [30] = assay: Photocytotoxicity in human MDA-MB-231 cells assessed as cell viability preincubated with compound for 1 hr followed by light irradiated with 400 to 700 nm 100 mW/cm^2 for 10 mins and measured after 24 hrs by CCK-8 assay; format: functional, cell-based; details: MDA-MB-231, light or radiation study
# MDA-MB-231 [31] = assay: Photocytotoxicity in human MDA-MB-231 cells assessed as reduction in ATP level at 0.5 uM preincubated with compound for 6 hrs followed by light irradiated with 400 to 700 nm 100 mW/cm^2 for 10 mins; format: functional, cell-based; details: time 370.0 min
# MDA-MB-231 [32] = assay: Induction of ROS production in human MDA-MB-231 cells assessed as increase in intracellular OH level at 0.3 uM preincubated with compound for 1 hr followed by light irradiation with 400 to 700 nm 100 mW/cm2 for 10 mins by HPF fluorescent probe based flow cytometry; format: functional, cell-based; details: time 70.0 min
# MDA-MB-231 [33] = assay: Photocytotoxicity in human MDA-MB-231 cells assessed as cell viability at 1 uM preincubated with compound for 1 hr followed by light irradiated with 400 to 700 nm 100 mW/cm^2 for 10 mins and measured after 24 hrs by CCK-8 assay; format: functional, cell-based; details: time 1510.0 min
# MDA-MB-231 [34] = assay: Dark cytotoxicity against human MDA-MB-231 cells assessed as cell viability at 1 uM incubated for 24 hrs by CCK8 assay; format: toxicity, cell-based; details: mda-mb-231, 24 h
# [35] = Toxicity in BALB/c mouse implanted with mouse 4T1 cells assessed as spleen damage at 1 mg/kg, iv using self assembled nanoparticle as source of compound measured up to 16 days by H and E staining based analysis; format: organism-based; details: in vivo, 384 h, time < 16 day
# [36] = Induction of ROS generation in BPS buffer assessed as increase in singlet oxygen level by measuring reduction in ABDA absorption peak at 10 uM irradiated with 400 to 700 nm 20 mW/cm2 light […]; format: functional
# [37] = Dark cytotoxicity against human MDA-MB-231 cells assessed as cell viability incubated for 24 hrs by CCK8 assay; format: toxicity, cell-based
# [38] = Toxicity in BALB/c mouse implanted with mouse 4T1 cells assessed as kidney damage at 1 mg/kg, iv using self assembled nanoparticle as source of compound measured up to 16 days by H and E staining based analysis; format: organism-based; details: in vivo, 384 h, time < 16 day
# MDA-MB-231 [39] = assay: Induction of pyroptosis in human MDA-MB-231 cells assessed as change in LDH level at 0.5 uM preincubated with compound for 1 hr followed by light irradiated with 400 to 700 nm 100 mW/cm^2 for 10 mins and measured after 12 to 24 hrs; format: functional, cell-based; details: time 790-1510 min
# 4T1 [40] = assay: Induction of pyroptosis in mouse 4T1 cells preincubated with compound for 1 hr followed by light irradiated with 400 to 700 nm 100 mW/cm^2 for 10 mins; format: functional, cell-based; details: time 70.0 min
# [41] = Toxicity in BALB/c mouse implanted with mouse 4T1 cells assessed as heart damage at 1 mg/kg, iv using self assembled nanoparticle as source of compound measured up to 16 days by H and E staining based analysis; format: organism-based; details: in vivo, 384 h, time < 16 day
smiles,measurement,setting,value
CC[n+]1c(/C=C/c2ccc(-c3cnn4ccc(N5CCOCC5)nc34)s2)sc2ccccc21.[I-],Activity,MDA-MB-231 [1],Active
same,Activity,MDA-MB-231 [2],Active
same,Activity,[3],Non-toxic
same,Activity,MDA-MB-231 [4],Active
same,Activity,4T1 [5],Active
same,Activity,MDA-MB-231 [6],Active
same,Activity,MDA-MB-231 [7],Active
same,Activity,[8],Non-toxic
same,Activity,MDA-MB-231 [9],inactive
same,Activity,MDA-MB-231 [10],Active
same,Activity,MDA-MB-231 [11],Active
same,Activity,MDA-MB-231 [12],Active
same,Activity,4T1 [13],Active
same,Activity,4T1 [14],Active
same,Activity,[15],Non-toxic
same,Drug uptake,[16],Active
same,Activity,4T1 [17],Active
same,IC50,MDA-MB-231 [18],1100 nM
same,Activity,MDA-MB-231 [19],Active
same,Activity,MDA-MB-231 [20],Active
same,Activity,MDA-MB-231 [21],Active
same,Activity,4T1 [22],Active
same,Activity,MDA-MB-231 [23],inactive
same,Activity,MDA-MB-231 [24],Active
same,Activity,MDA-MB-231 [25],Active
same,Activity,MDA-MB-231 [26],Active
same,Activity,[27],Time-dependent-effect
same,Activity,MDA-MB-231 [28],Active
same,Activity,MDA-MB-231 [29],Active
same,IC50,MDA-MB-231 [30],220 nM
same,Activity,MDA-MB-231 [31],Active
same,Activity,MDA-MB-231 [32],Active
same,Activity,MDA-MB-231 [33],Active
same,Activity,MDA-MB-231 [34],Non-toxic
same,Activity,[35],Non-toxic
same,Activity,[36],Active
same,IC50 at 24 h,[37],> 20000 nM
same,Activity,[38],Non-toxic
same,Activity,MDA-MB-231 [39],Active
same,Activity,4T1 [40],Active
same,Activity,[41],Non-toxic
